Activity calls are given as the source filed them. The rule behind the calls is not given here.
Tests used:
Mus musculus [1] = assay: Antinociceptive activity against formalin-induced pain in ip dosed ddY mouse assessed as reduction of paw licking response during neurogenic phase pretreated for 10 mins before formalin challenge; format: functional
Mus musculus [2] = assay: Antinociceptive activity against formalin-induced pain in ip dosed ddY mouse assessed as reduction of paw licking response during neurogenic phase pretreated for 10 mins before formalin challenge relative to morphine; format: functional
Mus musculus [3] = assay: Antinociceptive activity against formalin-induced pain in ip dosed ddY mouse assessed as reduction of paw licking response during inflammatory phase pretreated for 10 mins before formalin challenge relative to morphine; format: functional
Mus musculus [4] = assay: Antinociceptive activity against formalin-induced pain in ip dosed ddY mouse assessed as reduction of paw licking response during inflammatory phase pretreated for 10 mins before formalin challenge; format: functional
Mus musculus [5] = assay: Antinociceptive activity against formalin-induced pain in ddY mouse assessed as reduction of paw licking response during neurogenic phase at 20 mg/kg, ip pretreated for 10 mins before formalin challenge in presence of Naloxone; format: functional, organism-based; design: dose 20 mg/kg

SMILES	Activity (Mus musculus [1])	ED50 (Mus musculus [1])	Activity (Mus musculus [2])	Activity (Mus musculus [3])	Activity (Mus musculus [4])	ED50 (Mus musculus [4])	Activity (Mus musculus [5])
COc1cc([C@H]2[C@H](C(=O)O[C@@H]3C[C@@H]4[C@@H](CN(C)C[C@@H]4C)[C@@H]3C)[C@H](c3ccc(O)c(OC)c3)[C@H]2C(=O)O[C@@H]2C[C@@H]3[C@@H](CN(C)C[C@@H]3C)[C@@H]2C)ccc1O [INCARVILLATEINE]	Dose-dependent effect	17.4 µmol/kg	1.06	1.33	Dose-dependent effect	7.8 µmol/kg	–
CN1CC[C@]23c4c5ccc(O)c4O[C@H]2[C@@H](O)C=C[C@H]3[C@H]1C5 [MORPHINE]	–	18.4 µmol/kg	–	–	–	10.4 µmol/kg	inactive

From ChEMBL document CHEMBL1144111, “Strong antinociceptive effect of incarvillateine, a novel monoterpene alkaloid from Incarvillea sinensis” (1999)
